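In this assay, cells in 96-well plates receive the compound at five concentrations for 48 hours. Endpoints are linearly interpolated between the surrounding concentrations. GI50: concentration for 50% inhibition of growth.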 Activity calls are given as the source filed them. Cut-off read from the data, not from the text of the source: active = GI50 up to about 1.1 µM and inactive = higher.
Experiments:
Assay in all cases: NCI-60 cell line screen, 48 h
A498 = system: A498
CCRF-CEM = system: CCRF-CEM
COLO 205 = system: COLO 205
DU-145 = system: DU-145
HCT-116 = system: HCT-116
K562 = system: K562
LOX IMVI = system: LOX IMVI
M14 = system: M14
MCF7 = system: MCF7
MOLT-4 = system: MOLT-4
Malme-3M = system: Malme-3M
NCI-H460 = system: NCI-H460
NCI/ADR-RES = system: NCI/ADR-RES
OVCAR-5 = system: OVCAR-5
SF-539 = system: SF-539
SK-MEL-5 = system: SK-MEL-5
SNB-19 = system: SNB-19
UO-31 = system: UO-31
NCI-H23 = system: NCI-H23

Measured: GI50

COc1ccc(/C=N/N2C(=O)c3c(N)c(C#N)c(-c4ccccc4)c(-c4ccccc4)c3C2=O)cc1
inactive: A498 > 100 µM | CCRF-CEM > 100 µM | COLO 205 > 100 µM | DU-145 > 100 µM | HCT-116 3.65 µM | K562 > 100 µM | LOX IMVI > 100 µM | M14 > 100 µM | MCF7 > 100 µM | MOLT-4 > 100 µM | Malme-3M > 100 µM | NCI-H460 > 100 µM | NCI/ADR-RES > 100 µM | OVCAR-5 > 100 µM | SF-539 > 100 µM | SK-MEL-5 > 100 µM | SNB-19 76.9 µM | UO-31 > 100 µM

COc1cc2c(c(O)c1OC)C(O)C1CCC(=O)N1C2c1ccc2c(c1)OCO2 (stereo not drawn)
inactive: A498 > 100 µM | CCRF-CEM > 100 µM | COLO 205 > 100 µM | DU-145 > 100 µM | HCT-116 > 100 µM | K562 > 100 µM | LOX IMVI > 100 µM | M14 > 100 µM | MCF7 > 100 µM | MOLT-4 > 100 µM | Malme-3M > 100 µM | NCI-H23 > 100 µM | NCI-H460 > 100 µM | NCI/ADR-RES > 100 µM | OVCAR-5 > 100 µM | SF-539 > 100 µM | SNB-19 > 100 µM | UO-31 > 100 µM

COC(=S)OC1CC(n2cnc3c(=O)[nH]cnc32)OC1CO[Si](C)(C)C(C)(C)C (stereo not drawn)
inactive: A498 > 100 µM | CCRF-CEM > 100 µM | COLO 205 > 100 µM | DU-145 > 100 µM | HCT-116 > 100 µM | K562 > 100 µM | LOX IMVI > 100 µM | M14 > 100 µM | MCF7 > 100 µM | MOLT-4 > 100 µM | Malme-3M > 100 µM | NCI-H23 > 100 µM | NCI-H460 > 100 µM | NCI/ADR-RES > 100 µM | OVCAR-5 > 100 µM | SF-539 > 100 µM | SK-MEL-5 > 100 µM | SNB-19 > 100 µM

C[C@H]1C[C@H]2[C@@H]3C(C)(C)O[C@]4(O)C(=O)[C@]5(O)[C@@H](C)CC[C@H]1[C@]25C(=O)[C@]34C
inactive: A498 35 µM | CCRF-CEM 36.6 µM | COLO 205 16.7 µM | DU-145 48.2 µM | HCT-116 30.7 µM | K562 25.5 µM | LOX IMVI 36.1 µM | M14 71 µM | MCF7 41.3 µM | MOLT-4 37.1 µM | NCI-H23 30.3 µM | NCI-H460 30.2 µM | NCI/ADR-RES 39.3 µM | OVCAR-5 65.2 µM | SF-539 > 100 µM | SK-MEL-5 28.4 µM | SNB-19 > 100 µM | UO-31 51.6 µM

CNC(=O)NCCN1CC2CCC(CC2)C1
inactive: A498 > 10 µM | CCRF-CEM > 10 µM | COLO 205 > 10 µM | DU-145 > 10 µM | HCT-116 > 10 µM | K562 > 10 µM | LOX IMVI > 10 µM | M14 > 10 µM | MCF7 > 10 µM | MOLT-4 > 10 µM | Malme-3M > 10 µM | NCI-H23 > 10 µM | NCI-H460 > 10 µM | NCI/ADR-RES > 10 µM | SF-539 > 10 µM | SK-MEL-5 > 10 µM | SNB-19 > 10 µM | UO-31 > 10 µM

O=[N+]([O-])c1ccc(CSC2=C(c3ccc(Cl)cc3)S/C(=C3\SC(SCc4ccc([N+](=O)[O-])cc4)=C(c4ccc(Cl)cc4)S3)S2)cc1
inactive: A498 > 100 µM | CCRF-CEM > 100 µM | COLO 205 > 100 µM | DU-145 > 100 µM | HCT-116 > 100 µM | K562 > 100 µM | LOX IMVI > 100 µM | M14 > 100 µM | MCF7 > 100 µM | MOLT-4 > 100 µM | Malme-3M > 100 µM | NCI-H23 > 100 µM | NCI-H460 > 100 µM | NCI/ADR-RES > 100 µM | OVCAR-5 > 100 µM | SF-539 > 100 µM | SK-MEL-5 > 100 µM | SNB-19 > 100 µM

Cc1ncc([N+](=O)[O-])n1CCNCCCCn1ccnc1[N+](=O)[O-]
inactive: A498 > 100 µM | CCRF-CEM > 100 µM | COLO 205 > 100 µM | DU-145 > 100 µM | HCT-116 > 100 µM | K562 > 100 µM | LOX IMVI > 100 µM | M14 > 100 µM | MCF7 > 100 µM | MOLT-4 > 100 µM | Malme-3M > 100 µM | NCI-H23 > 100 µM | NCI-H460 > 100 µM | NCI/ADR-RES > 100 µM | OVCAR-5 > 100 µM | SF-539 > 100 µM | SK-MEL-5 > 100 µM | UO-31 > 100 µM

CC1(C)CCC[C@]2(C)[C@H]3[C@H](C#N)c4cc(O)c(O)cc4O[C@@]3(C)CC[C@@H]12
inactive: A498 > 10 µM | CCRF-CEM > 10 µM | COLO 205 > 10 µM | DU-145 > 10 µM | K562 > 10 µM | LOX IMVI > 10 µM | M14 > 10 µM | MCF7 > 10 µM | MOLT-4 > 10 µM | NCI-H23 > 10 µM | NCI-H460 > 10 µM | NCI/ADR-RES > 10 µM | OVCAR-5 > 10 µM | SF-539 > 10 µM | SK-MEL-5 > 10 µM | SNB-19 > 10 µM | UO-31 5.87 µM

— ChEMBL document CHEMBL1201862, “PubChem BioAssay data set” (2004)
